# Non-standard residues stand in square brackets, D forms with d. *: point of attachment. Arg(NO2) = N=C(NCCC[C@H](N)C(=O)O)N[N+](=O)[O-]; OiPr = CC(C)O*
# Assay: Effect of pH value on the stability of the solution (purity)
# Assay type: physicochemical
# Details: for Purity(%) from day 0-14 / Purity(%) from day 0-28: 25° C.; for Purity(%) at day 1 / Purity(%) at day 30 / Purity(%) at day 90 / Purity(%) at day 180 / Purity(%) at day 360: 5% solution
# [1] = 25% ethanol (after multiple recrystalization), pH 3.7, 25° C.
# [2] = 25% ethanol with 0.5 equivalent sodium acetate, pH 3.7, 25° C.
# [3] = 25% ethanol with 1 equivalent sodium acetate, pH 4.6, 25° C.
# [4] = 25% ethanol with 1.5 equivalent sodium acetate, pH 5.6, 25° C.
# [5] = 25% ethanol with HCl, pH 1.0, 25° C.
# [6] = 25% ethanol with HCl, pH 2.0, 25° C.
# [7] = 25% ethanol with NaOH, pH 7, 25° C.
# [8] = 25% ethanol with NaOH, pH 8, 25° C.
# [9] = day 0, pH 1.0, 7% in 25% ethanol
# [10] = day 0, pH 2.0, 7% in 25% ethanol
# [11] = day 0, pH 3.0, 7% in 25% ethanol
# [12] = day 0, pH 3.7, 7% in 25% ethanol
# [13] = day 0, pH 4.0, 7% in 25% ethanol
# [14] = day 0, pH 4.3, 7% in 25% ethanol
# [15] = day 0, pH 4.6, 7% in 25% ethanol
# [16] = day 0, pH 5.0, 7% in 25% ethanol
# [17] = day 0, pH 6.0, 7% in 25% ethanol
# [18] = day 0, pH 7.0, 7% in 25% ethanol
# [19] = day 0, pH 8.0, 7% in 25% ethanol
# [20] = day 28, pH 1.0, 7% in 25% ethanol
# [21] = day 28, pH 2.0, 7% in 25% ethanol
# [22] = day 28, pH 3.0, 7% in 25% ethanol
# [23] = day 28, pH 3.7, 7% in 25% ethanol
# [24] = day 28, pH 4.0, 7% in 25% ethanol
# [25] = day 28, pH 4.3, 7% in 25% ethanol
# [26] = day 28, pH 4.6, 7% in 25% ethanol
# [27] = day 28, pH 5.0, 7% in 25% ethanol
# [28] = day 28, pH 6.0, 7% in 25% ethanol
# [29] = day 28, pH 7.0, 7% in 25% ethanol
# [30] = day 28, pH 8.0, 7% in 25% ethanol
compound,measurement,setting,value
"CCN(CC)CCOC(=O)c1ccccc1OC(C)=O.O=C(O)/C=C\C(=O)O [A-1, 2-(diethylamino)ethyl acetylsalicylate•maleic acid salt]",Purity(%) from day 0-14,"day 14, pH 1.0, 7% in water",59.1 ± 0.4%
same,Purity(%) from day 0-14,"day 14, pH 2.0, 7% in water",78.8 ± 0.3%
same,Purity(%) from day 0-14,"day 14, pH 3.0, 7% in water",90.9 ± 0.2%
same,Purity(%) from day 0-14,"day 14, pH 3.7, 7% in water",94.0 ± 0.3%
same,Purity(%) from day 0-14,"day 14, pH 4.0, 7% in water",94.5 ± 0.2%
same,Purity(%) from day 0-14,"day 14, pH 4.3, 7% in water",94.6 ± 0.3%
same,Purity(%) from day 0-14,"day 14, pH 4.6, 7% in water",94.3 ± 0.2%
same,Purity(%) from day 0-14,"day 14, pH 5.0, 7% in water",86.9 ± 0.3%
same,Purity(%) from day 0-14,"day 14, pH 6.0, 7% in water",78.9 ± 0.3%
same,Purity(%) from day 0-14,"day 14, pH 7.0, 7% in water",57.8 ± 0.4%
same,Purity(%) from day 0-14,"day 14, pH 8.0, 7% in water",16.1 ± 0.4%
H-Val-Pro-Gly-Pro-Arg(NO2)—OCH(CH3)2•HCl salt (H-VPGP[Arg(NO2)]-OiPr; also: HCl salt),Purity(%) at day 1,[1],98.6 ± 0.2%
same,Purity(%) at day 30,[1],98.1 ± 0.2%
same,Purity(%) at day 90,[1],97.2 ± 0.1%
same,Purity(%) at day 180,[1],95.4 ± 0.1%
same,Purity(%) at day 360,[1],92.1 ± 0.2%
same,Purity(%) at day 1,[2],98.6 ± 0.2%
same,Purity(%) at day 30,[2],98.2 ± 0.1%
same,Purity(%) at day 90,[2],97.1 ± 0.2%
same,Purity(%) at day 180,[2],95.6 ± 0.2%
same,Purity(%) at day 360,[2],92.0 ± 0.2%
same,Purity(%) at day 1,[3],98.6 ± 0.2%
same,Purity(%) at day 30,[3],98.2 ± 0.2%
same,Purity(%) at day 90,[3],97.0 ± 0.1%
same,Purity(%) at day 180,[3],95.6 ± 0.2%
same,Purity(%) at day 360,[3],92.1 ± 0.2%
same,Purity(%) at day 1,[4],98.5 ± 0.2%
same,Purity(%) at day 30,[4],97.0 ± 0.2%
same,Purity(%) at day 90,[4],93.8 ± 0.1%
same,Purity(%) at day 180,[4],88.1 ± 0.2%
same,Purity(%) at day 360,[4],80.1 ± 0.3%
same,Purity(%) at day 1,[5],98.3 ± 0.2%
same,Purity(%) at day 30,[5],85.0 ± 0.2%
same,Purity(%) at day 90,[5],59.5 ± 0.2%
same,Purity(%) at day 180,[5],43.5 ± 0.3%
same,Purity(%) at day 360,[5],17.6 ± 0.3%
same,Purity(%) at day 1,[6],98.4 ± 0.2%
same,Purity(%) at day 30,[6],91.7 ± 0.2%
same,Purity(%) at day 90,[6],84.7 ± 0.3%
same,Purity(%) at day 180,[6],71.7 ± 0.3%
same,Purity(%) at day 360,[6],52.7 ± 0.3%
same,Purity(%) at day 1,[7],98.3 ± 0.3%
same,Purity(%) at day 30,[7],78.1 ± 0.4%
same,Purity(%) at day 90,[7],44.1 ± 0.4%
same,Purity(%) at day 180,[7],25.1 ± 0.4%
same,Purity(%) at day 360,[7],0%
same,Purity(%) at day 1,[8],98.0 ± 0.3%
same,Purity(%) at day 30,[8],56.3 ± 0.3%
same,Purity(%) at day 90,[8],32.3 ± 0.4%
same,Purity(%) at day 180,[8],3.9 ± 0.4%
same,Purity(%) at day 360,[8],0%
same,Purity(%) at day 1,"25% ethanol, pH 3.0, 25° C.",98.5 ± 0.1%
same,Purity(%) at day 30,"25% ethanol, pH 3.0, 25° C.",97.4 ± 0.2%
same,Purity(%) at day 90,"25% ethanol, pH 3.0, 25° C.",94.7 ± 0.1%
same,Purity(%) at day 180,"25% ethanol, pH 3.0, 25° C.",90.7 ± 0.2%
same,Purity(%) at day 360,"25% ethanol, pH 3.0, 25° C.",82.7 ± 0.3%
H-Ala-Pro-Gly-Pro-Arg(NO2)—OCH2CH3•HCl salt (H-APGP[Arg(NO2)]-OEt; also: HCl salt),Purity(%) at day 1,[1],98.1 ± 0.2%
same,Purity(%) at day 30,[1],97.3 ± 0.2%
same,Purity(%) at day 90,[1],95.0 ± 0.1%
same,Purity(%) at day 180,[1],91.2 ± 0.3%
same,Purity(%) at day 1,[2],98.2 ± 0.1%
same,Purity(%) at day 30,[2],97.4 ± 0.2%
same,Purity(%) at day 90,[2],95.1 ± 0.3%
same,Purity(%) at day 180,[2],91.2 ± 0.3%
same,Purity(%) at day 1,[3],98.2 ± 0.2%
same,Purity(%) at day 30,[3],97.3 ± 0.2%
same,Purity(%) at day 90,[3],95.0 ± 0.3%
same,Purity(%) at day 180,[3],91.1 ± 0.3%
same,Purity(%) at day 1,[4],98.1 ± 0.2%
same,Purity(%) at day 30,[4],94.7 ± 0.2%
same,Purity(%) at day 90,[4],91.5 ± 0.3%
same,Purity(%) at day 180,[4],83.7 ± 0.3%
same,Purity(%) at day 1,[6],97.8 ± 0.1%
same,Purity(%) at day 30,[6],84.2 ± 0.2%
same,Purity(%) at day 90,[6],69.6 ± 0.2%
same,Purity(%) at day 180,[6],39.9 ± 0.3%
same,Purity(%) at day 1,[7],97.9 ± 0.2%
same,Purity(%) at day 30,[7],55.2 ± 0.3%
same,Purity(%) at day 90,[7],31.3 ± 0.3%
same,Purity(%) at day 180,[7],0%
same,Purity(%) at day 1,[8],97.5 ± 0.1%
same,Purity(%) at day 30,[8],22.6 ± 0.2%
same,Purity(%) at day 90,[8],0%
same,Purity(%) at day 180,[8],0%
same,Purity(%) at day 1,"25% ethanol, pH 3.0, 25° C.",98.1 ± 0.2%
same,Purity(%) at day 30,"25% ethanol, pH 3.0, 25° C.",95.7 ± 0.3%
same,Purity(%) at day 90,"25% ethanol, pH 3.0, 25° C.",92.8 ± 0.3%
same,Purity(%) at day 180,"25% ethanol, pH 3.0, 25° C.",86.0 ± 0.3%
"CC(C)Cc1ccc([C@@H](C)C(=O)OCCC2CCNCC2)cc1.Cl (racemic) [C-8, 4-piperidineethyl (R,S)-2-(p-isobutylphenyl)propionate•HCl salt]",Purity(%) from day 0-28,[9],97.6 ± 0.4%
same,Purity(%) from day 0-28,[10],98.0 ± 0.3%
same,Purity(%) from day 0-28,[11],98.1 ± 0.2%
same,Purity(%) from day 0-28,[12],98.3 ± 0.3%
same,Purity(%) from day 0-28,[13],98.4 ± 0.3%
same,Purity(%) from day 0-28,[14],98.4 ± 0.2%
same,Purity(%) from day 0-28,[15],98.3 ± 0.2%
same,Purity(%) from day 0-28,[16],98.3 ± 0.4%
same,Purity(%) from day 0-28,[17],98.2 ± 0.3%
same,Purity(%) from day 0-28,[18],97.9 ± 0.3%
same,Purity(%) from day 0-28,[19],97.6 ± 0.5%
same,Purity(%) from day 0-28,[20],68.4 ± 0.4%
same,Purity(%) from day 0-28,[21],87.3 ± 0.3%
same,Purity(%) from day 0-28,[22],87.3 ± 0.3%
same,Purity(%) from day 0-28,[23],95.0 ± 0.2%
same,Purity(%) from day 0-28,[24],96.1 ± 0.3%
same,Purity(%) from day 0-28,[25],96.3 ± 0.3%
same,Purity(%) from day 0-28,[26],96.3 ± 0.2%
same,Purity(%) from day 0-28,[27],89.7 ± 0.3%
same,Purity(%) from day 0-28,[28],87.3 ± 0.3%
same,Purity(%) from day 0-28,[29],48.3 ± 0.4%
same,Purity(%) from day 0-28,[30],34.2 ± 0.3%
"CC(C)Cc1ccc([C@@H](C)C(=O)OCCN2CCCC2)cc1.Cl (racemic) [C-9, 1-pyrrolidineethyl (R,S)-2-(p-isobutylphenyl)propionate•HCl salt]",Purity(%) from day 0-28,[9],98.0 ± 0.3%
same,Purity(%) from day 0-28,[10],98.2 ± 0.4%
same,Purity(%) from day 0-28,[11],98.5 ± 0.3%
same,Purity(%) from day 0-28,[12],98.6 ± 0.4%
same,Purity(%) from day 0-28,[13],98.6 ± 0.3%
same,Purity(%) from day 0-28,[14],98.7 ± 0.2%
same,Purity(%) from day 0-28,[15],98.6 ± 0.3%
same,Purity(%) from day 0-28,[16],98.5 ± 0.4%
same,Purity(%) from day 0-28,[17],98.4 ± 0.5%
same,Purity(%) from day 0-28,[18],98.1 ± 0.5%
same,Purity(%) from day 0-28,[19],97.9 ± 0.5%
same,Purity(%) from day 0-28,[20],68.3 ± 0.2%
same,Purity(%) from day 0-28,[21],87.7 ± 0.3%
same,Purity(%) from day 0-28,[22],87.7 ± 0.2%
same,Purity(%) from day 0-28,[23],95.5 ± 0.3%
same,Purity(%) from day 0-28,[24],96.3 ± 0.3%
same,Purity(%) from day 0-28,[25],96.4 ± 0.2%
same,Purity(%) from day 0-28,[26],96.4 ± 0.3%
same,Purity(%) from day 0-28,[27],88.6 ± 0.3%
same,Purity(%) from day 0-28,[28],89.0 ± 0.4%
same,Purity(%) from day 0-28,[29],48.1 ± 0.3%
same,Purity(%) from day 0-28,[30],34.4 ± 0.4%
"CC(C)Cc1ccc(C(C)C(=O)OCCN2CCCCC2)cc1.Cl (racemic) [C-10, 1-piperidineethyl (R,S)-2-(p-isobutylphenyl)propionate•HCl salt]",Purity(%) from day 0-28,[9],97.6 ± 0.3%
same,Purity(%) from day 0-28,[10],97.9 ± 0.4%
same,Purity(%) from day 0-28,[11],98.0 ± 0.3%
same,Purity(%) from day 0-28,[12],98.2 ± 0.3%
same,Purity(%) from day 0-28,[13],98.2 ± 0.2%
same,Purity(%) from day 0-28,[14],98.3 ± 0.3%
same,Purity(%) from day 0-28,[15],98.2 ± 0.4%
same,Purity(%) from day 0-28,[16],98.2 ± 0.3%
same,Purity(%) from day 0-28,[17],98.1 ± 0.3%
same,Purity(%) from day 0-28,[18],97.8 ± 0.3%
same,Purity(%) from day 0-28,[19],97.5 ± 0.5%
same,Purity(%) from day 0-28,[20],68.1 ± 0.3%
same,Purity(%) from day 0-28,[21],87.0 ± 0.3%
same,Purity(%) from day 0-28,[22],87.0 ± 0.2%
same,Purity(%) from day 0-28,[23],95.1 ± 0.3%
same,Purity(%) from day 0-28,[24],95.8 ± 0.3%
same,Purity(%) from day 0-28,[25],95.9 ± 0.2%
same,Purity(%) from day 0-28,[26],95.8 ± 0.3%
same,Purity(%) from day 0-28,[27],88.5 ± 0.4%
same,Purity(%) from day 0-28,[28],87.9 ± 0.3%
same,Purity(%) from day 0-28,[29],47.8 ± 0.3%
same,Purity(%) from day 0-28,[30],34.1 ± 0.4%

# Source: patent US20230157952A1, “METHOD FOR IMPROVING THE STABILITY OF A PHARMACEUTICAL COMPOSITION COMPRISING A HIGH PENETRATION DRUG, AND THE PHARMACEUTICAL COMPOSITION OBTAINED THEREFROM” (Techfields Inc., priority 2020, published 2023)
